Experimental data from patent US10597388B2, “Pyridazinone herbicides” (FMC CORPORATION, priority 2014, dated 2020).

Columns and labels:
Format in all cases: in vivo
[1] = test system: Canada thistle (Cirsium arvense); experiment: Test D controlled growth environment herbicide test, pre- and postemergence
In short: (§1)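 Pre-emergence: seeds sown in silt loam soil were sprayed with compound in a non-phytotoxic solvent mix containing surfactant. Post-emergence: plants at 2 to 18 cm (1- to 4-leaf stage) in peat moss/vermiculite medium got the same formulation. Visual 0–100 rating versus controls after 14 to 21 d.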

[2] = test system: geranium, cutleaf (cutleaf geranium, Geranium dissectum); experiment: as above
In short: as §1

[3] = test system: wild poinsettia (Euphorbia heterophylla); experiment: Test E greenhouse herbicide test, pre- and postemergence; settings: Postemergence
In short: (§2)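 Scores (0–100, visual, vs controls) reflect greenhouse growth of 14 to 21 d after treatment. Application was pre-emergence to silt loam or post-emergence at the 1- to 4-leaf stage.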

[4] = test system: foxtail, giant (giant foxtail, Setaria faberii); experiment: as above; settings: Preemergence
In short: as §2

[5] = Postemergence, 31 g ai/ha, scale 0 to 100 (0 no effect, 100 complete control)
[6] = Postemergence, 125 g ai/ha, visual rating on scale 0 (no effect) to 100 (complete control), 14 to 21 d
[7] = Postemergence, 250 g ai/ha, scale 0 to 100 (0 no effect, 100 complete control)
[8] = Preemergence, 125 g ai/ha, scale 0 to 100 (0 no effect, 100 complete control)
[9] = Preemergence, 250 g ai/ha, scale 0 to 100 (0 no effect, 100 complete control)
[10] = postemergence, 62 g ai/ha, scale 0 to 100, 0 no effect, 100 complete control
[11] = 62 g ai/ha, scale 0 to 100 (0 no effect, 100 complete control)
[12] = 125 g ai/ha, scale 0 to 100 (0 no effect, 100 complete control)
[13] = 31 g ai/ha, visual, scale 0 no effect to 100 complete control
[14] = 31 g ai/ha, scale 0 to 100, 0 no effect, 100 complete control
[15] = 125 g ai/ha, visual, scale 0 no effect to 100 complete control
[16] = 250 g ai/ha, visual, scale 0 no effect to 100 complete control
[17] = 250 g ai/ha, scale 0 to 100 (0 no effect, 100 complete control)

CC(=O)Oc1c(C)nn(C)c(=O)c1-c1ccc(F)c2ccccc12 [Compound 90]
Canada Thistle plant response rating [1, 5]: 98 | Plant response rating, Canada Thistle [1, 6]: 100 | Plant response rating, Canada Thistle [1, 7]: 98 | Plant response rating (scale of 0 to 100), Canada Thistle ([1]; Preemergence, 31 g ai/ha): 50 | Plant response rating, Canada Thistle ([1]; Preemergence, 62 g ai/ha, scale 0 to 100 (0 no effect, 100 complete control)): 95 | Plant response rating, Canada Thistle [1, 8]: 100 | Plant response rating, Canada Thistle [1, 9]: 100 | Plant response rating, Canada Thistle [1, 10]: 100 | Geranium, Cutleaf plant response rating [2, 5]: 45 | Plant response rating, Geranium, Cutleaf [2, 6]: 75 | Plant response rating, Geranium, Cutleaf [2, 7]: 95 | Plant response rating (scale of 0 to 100), Geranium, Cutleaf ([2]; Preemergence, 31 g ai/ha): 0 | Plant response rating (scale of 0 to 100), Geranium, Cutleaf ([2]; Preemergence, 62 g ai/ha): 60 | Plant response rating, Geranium, Cutleaf [2, 8]: 65 | Plant response rating, Geranium, Cutleaf [2, 9]: 90 | Plant response rating, Geranium, Cutleaf [2, 10]: 65 | Plant response rating, Poinsettia, Wild [3, 11]: 50 | Plant response rating, Poinsettia, Wild [3, 12]: 60 | Plant response rating, Poinsettia, Wild ([3]; 16 g ai/ha, visual, scale 0 no effect to 100 complete control): 20 | Plant response rating, Poinsettia, Wild [3, 13]: 35

CCC(=O)Oc1c(C)nn(C)c(=O)c1-c1c(C)sc2c(C)cc(C)cc12 [Compound 28]
Plant response rating, Foxtail, Giant [4, 11]: 100 | Plant response rating, Foxtail, Giant [4, 14]: 85 | Plant response rating, Foxtail, Giant [4, 15]: 100 | Plant response rating, Foxtail, Giant [4, 16]: 100 | Plant response rating, Poinsettia, Wild [3, 12]: 50 | Plant response rating, Poinsettia, Wild [3, 17]: 40

CCOC(=O)Oc1c(C)nn(C)c(=O)c1-c1c(CC)ccc2ccccc12 [Compound 37]
Plant response rating, Foxtail, Giant [4, 11]: 70 | Plant response rating, Foxtail, Giant [4, 14]: 65 | Plant response rating, Foxtail, Giant [4, 15]: 80 | Plant response rating, Foxtail, Giant [4, 16]: 90

CC(=O)Oc1c(C)nn(C)c(=O)c1-c1c(C)sc2ccc(C)cc12 [Compound 25]
Plant response rating, Foxtail, Giant [4, 11]: 95 | Plant response rating, Foxtail, Giant [4, 14]: 80 | Plant response rating, Foxtail, Giant [4, 15]: 98 | Plant response rating, Foxtail, Giant [4, 16]: 100 | Plant response rating, Poinsettia, Wild [3, 11]: 30 | Plant response rating, Poinsettia, Wild [3, 12]: 35 | Plant response rating, Poinsettia, Wild [3, 17]: 60 | Plant response rating, Poinsettia, Wild [3, 13]: 35

CSCC(=O)Oc1c(C)nn(C)c(=O)c1-c1cccc2ccccc12 [Compound 171]
Plant response rating, Poinsettia, Wild [3, 11]: 30 | Plant response rating, Poinsettia, Wild [3, 12]: 40 | Plant response rating, Poinsettia, Wild [3, 17]: 80 | Plant response rating, Poinsettia, Wild [3, 13]: 25

COc1nn(C)c(=O)c(-c2c(C)sc3ccc(Cl)cc23)c1O [Compound 100]
Plant response rating, Poinsettia, Wild [3, 11]: 0 | Plant response rating, Poinsettia, Wild [3, 12]: 10 | Plant response rating, Poinsettia, Wild [3, 17]: 35 | Plant response rating, Poinsettia, Wild [3, 13]: 0

Cc1cc(C)c2sc(C)c(-c3c(OC(=O)OCCCl)c(C)nn(C)c3=O)c2c1 [Compound 85]
Plant response rating, Foxtail, Giant [4, 11]: 65 | Plant response rating, Foxtail, Giant [4, 12]: 95 | Plant response rating, Foxtail, Giant [4, 14]: 15 | Plant response rating, Foxtail, Giant [4, 16]: 100

CCOC(=O)Oc1c(C)nn(C)c(=O)c1-c1c(C)sc2c(C)cc(C)cc12 [Compound 83]
Plant response rating, Foxtail, Giant [4, 11]: 98 | Plant response rating, Foxtail, Giant [4, 12]: 100 | Plant response rating, Foxtail, Giant [4, 14]: 95 | Plant response rating, Foxtail, Giant [4, 16]: 100
